Legend:
[1] = tested on: 60S, 80S and 40S ribosomal subunits; experiment: Polysome profiling; type: cell-based, human
Excerpt: NVL2 in yeast is essential for 60S ribosomal maturation, and therefore, we hypothesized that MM017 might decrease 60S ribosome synthesis. To test this hypothesis, we subjected either parental or NVL mutant cells treated with MM017 for different time points to polysome profiling. Polysome profiling uses a sucrose gradient to fractionate the complete ribosome (80S) from its components, the large (60S) and small (40S) subunit. […] Since the 80S is a complex of the 40S and 60S ribosomes, fewer 60S ribosomes are expected to result in increased free 40S subunits. All of these changes are the result of binding NVL2 since they were not present in the NVL2^R403W mutant cells. Taken together, these observations indicate that MM017 inhibits NVL2 leading to reduced 60S ribosome.
We next assessed the impact of disrupting NVL on the distribution of ribosomal species using polysome profiling. Addition of Ph-IAA to induce NVL degradation in NVL^AID/AID cells led to a time-dependent reduction in free 60S and 80S levels (based on absorbance at 260 nm) and a concomitant increase in 40S levels. […] The polysome profiles following NVL disruption in HCT116 cells appear similar to those reported in yeast with RIX7 mutations (37) or in human cells overexpressing catalytic mutants of NVL (38).

HCT116 NVL^H304R cells = experiment: Cell viability in HCT116 NVL^H304R knock-in cells; type: cell-based; details: Homo sapiens, HCT-116
Excerpt: From whole exome sequencing, we identified variants that were acquired during IAA-induced mutagenesis with the hypothesis that genes related to resistance will be mutated in multiple clones. Two genes contained acquired variants in at least 3 of the 15 selected clones: TERT, mutated in 3 of 15 clones, and NVL, mutated in all 15 clones. […] In sum, 57 out of 59 unique clones harbored NVL mutations. The majority of mutations clustered within the D1 AAA+ ATPase domain and frequently affecting the same codons. […]
HCT116 cells were transfected with TransIT-LT (Mirus #MIR2304) according to manufacturer's protocol with a guide RNA (either mock or NVL targeting) in the px330 vector (Addgene, #42230), and 10 nM single stranded deoxyoligonucleotide encoding a specific NVL mutation (see below for specific sequences). […] The resulting cells were evaluated by cresyl violet staining or collected and the relevant NVL mutations were analyzed by either amplicon or sanger sequencing.
Cell viability assay: In 96-well assay plates (Corning #2903), 2,000 cells were plated per well in 100 μL of medium and allowed to adhere overnight. […] Luminescence (CellTiter-Glo) was recorded using a Synergy 2 microplate reader (BioTek). […]

cleaved caspase-3 = experiment: Cleaved caspase-3 (apoptosis), HCT116 control and p53 KO cells; type: cell-based, human
Excerpt: The upregulation of p53 and its effector p21 can arrest cell growth or induce cell death through apoptosis. […] Next, we addressed whether cell death was mediated by an apoptotic pathway by assaying for cleaved caspase-3, a bona fide marker of apoptosis.

mouse NVL = target: T1, mouse NVL (Mus musculus, UniProt Q9DBY8); experiment: Viability of NVL^AID/AID cells relying on ectopic mouse NVL (Ph-IAA); type: cell-based; details: endogenous NVL degraded with Ph-IAA
T1 construct: expressed in transfected cells; host or cells: HCT116 NVL^AID/AID cells (human cells, viral infection)
T1 sequence (Q9DBY8 whole entry): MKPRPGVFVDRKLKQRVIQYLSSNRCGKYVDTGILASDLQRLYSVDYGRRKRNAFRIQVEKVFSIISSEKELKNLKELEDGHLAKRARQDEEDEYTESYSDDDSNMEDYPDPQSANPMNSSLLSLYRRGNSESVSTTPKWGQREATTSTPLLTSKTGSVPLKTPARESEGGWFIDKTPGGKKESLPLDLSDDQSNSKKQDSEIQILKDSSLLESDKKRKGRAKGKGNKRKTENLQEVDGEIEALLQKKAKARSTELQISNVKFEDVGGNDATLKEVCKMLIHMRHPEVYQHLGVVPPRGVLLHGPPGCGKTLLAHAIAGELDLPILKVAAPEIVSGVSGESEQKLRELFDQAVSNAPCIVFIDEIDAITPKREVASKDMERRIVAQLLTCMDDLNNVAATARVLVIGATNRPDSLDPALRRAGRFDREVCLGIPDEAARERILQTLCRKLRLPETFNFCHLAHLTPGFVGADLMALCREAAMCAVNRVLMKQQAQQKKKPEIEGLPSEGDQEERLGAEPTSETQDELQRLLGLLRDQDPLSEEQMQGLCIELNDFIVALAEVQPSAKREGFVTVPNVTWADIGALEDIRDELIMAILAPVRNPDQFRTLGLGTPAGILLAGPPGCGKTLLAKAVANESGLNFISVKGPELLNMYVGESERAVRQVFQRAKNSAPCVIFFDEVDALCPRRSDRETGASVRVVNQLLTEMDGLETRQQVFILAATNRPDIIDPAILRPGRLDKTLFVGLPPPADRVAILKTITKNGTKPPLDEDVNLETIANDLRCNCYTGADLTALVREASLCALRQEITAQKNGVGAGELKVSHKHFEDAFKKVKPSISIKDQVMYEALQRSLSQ
Excerpt: Next, we investigated whether inhibitors of NVL could inhibit the growth of cell line derived xenografts tumors in mice, and whether systemic inhibition of NVL leads to specific toxicities. […] To test the potency of MM927 against mouse NVL within the same cell type, we ectopically expressed either human or mouse NVL in NVL^AID/AID cells. Treatment with Ph-IAA degrades the endogenous protein so that the cells must rely solely on ectopically expressed NVL. In the mock infected cells, degrading NVL^AID/AID by the addition of Ph-IAA reduced cell viability as expected, and the viability was completely rescued by expression of either ectopic mouse or human NVL.

IC50 (HCT116 NVL^H304R cells)	Compound	polysome profile, NVL^P307T cells ([1]; NVL^P307T)	polysome profile, parental cells ([1]; parental HCT116)	cleaved caspase-3 (cleaved caspase-3)	IC50 (mouse NVL)
2.4 µM	COCCN1C(=O)c2ccccc2Sc2cc(NC(=O)c3ccoc3)ccc21 [MM017]	no changes in polysome profiles	time-dependent decrease in the 60S and 80S ribosomal subunits	substantially reduced in p53 KO cells	–
–	CC#CCN1C(=O)c2ccc(F)cc2Sc2cc(NC(=O)c3ccc4oc(=O)n(C)c4c3)ccc21 [MM927, N-(10-(But-2-yn-1-yl)-3-fluoro-11-oxo-10,11-dihydrodibenzo[b,f][1,4]thiazepin-7-yl)-3-methyl-2-oxo-2,3-dihydrobenzo[d]oxazole-5-carboxamide]	–	–	–	0.207 µM
